The target in experiment [1] is T1, dengue 2 protease (Dengue virus type 2, UniProt P14340).
T1 construct: The active site of the dengue protease is in the N-terminal part of NS3
Description: Dengue 2 protease inhibition, hydrolysis of Z-RR-MCA. Format: biochemical, dengue 2 virus. Details: Activity with inhibitors: unit not given here. Conditions: for activity at 5 µM: 5 μM inhibitor; for activity at 10 µM: 10 μM inhibitor; for activity at 15 µM: 15 μM inhibitor; for Activity with inhibitors: 25 μM of inhibitor, 10 μM Z-RR-MCA, pH 9.0, 37° C., initial activity in UAF/min; for activity at 40 µM: 40 μM inhibitor. How it is done:
The active site of the dengue protease is in the N-terminal part of NS3 which is also a serine protease with catalytic triad Asp79-His51-Ser135, but requires […] (CF40) for activity; the inhibition reported here was studied on a […] (CF40-GGGGSGGGG-NS3; (SEQ ID NO:54)) which has also been structurally characterized [Erbel et al., 2006; Luo et al. 2008].
(§1) Substrate was added in a concentration 10 times the Km, and the inhibitor compounds of type C (C16-KGnK-C16, C16-KAnK-C16, and C16-RAnR-C16) were added in increasing concentrations (1.0, 5.0, 10.0, 20.0, 40.0 μL) from a stock solution of 2 mg in 1 mL DMSO. The residual activity was measured in a Hitachi F2500 spectrofluorimeter, and plots were fitted using the Grafit® software (Erithracus Software, Horley, Surrey, UK). All the assays were calculated by the Morrison equation for competitive inhibition (eq. 1, [Morrison, 1969]). The amount of substrate used for the tight binding titration experiments follow all the requirements, where [S]<<Km for all enzymes, so the Kiapp=Ki.
(§2) Range of Proteases Inhibited by Geminoids, Determination of Ki with Z-RR-MCA (Dengue 2 Protease) and Ac-RVRR-MCA (Furin) (SEQ ID NO:60).

The target in experiment [2] is T1, dengue 2 protease. Description: Dengue 2 protease inhibition in presence of Triton X-100 (detergent test, Nature Protocol). The note with it: 0.05% Triton X-100; for Activity with 0.05% Triton: initial activity in UAF/min. Type of experiment: biochemical, dengue 2 virus. From the text:
A further investigation of the interactions of the geminoid inhibitors with biological membranes and with membrane-bound proteases is needed. […] The preparation and tests of peptides symmetrically, asymmetrically and singly alkylated with saturated, short (C6), and unsaturated (C18:1) alkyl tails are in progress.

In experiment [3] the target is T1, dengue 2 protease. The experiment can be described thus: Dengue 2 protease inhibition, hydrolysis of Z-RR-MCA. The note with it: 10 μM Z-RR-MCA, pH 9.0, 37° C., initial activity in UAF/min. Type of experiment: biochemical, dengue 2 virus. Details: unit not given here.
For experiment [4], the target named is T2, trypsin (Bos taurus, UniProt P00760).
T2 construct: gene PRSS1
T2 sequence (P00760 24-246): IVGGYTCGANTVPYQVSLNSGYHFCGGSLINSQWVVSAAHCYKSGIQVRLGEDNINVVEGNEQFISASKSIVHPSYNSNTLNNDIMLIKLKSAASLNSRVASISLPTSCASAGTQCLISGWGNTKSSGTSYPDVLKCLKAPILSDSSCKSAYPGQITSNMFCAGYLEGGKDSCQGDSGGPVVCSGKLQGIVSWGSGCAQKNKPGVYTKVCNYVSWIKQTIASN
The experiment can be described thus: Trypsin inhibition, fluorimetric enzyme assay. Conditions: for remaining activity at 15 µM: 15 μM inhibitor. Format: biochemical. How it is done:
as §1, with “The enzyme was dissolved in 1 mL MES buffer (10 mM), 1 mM CaCl2, pH 7.0 at 36.5° C. Substrate” for “Substrate”
The first group of gemini-like peptide amphiphiles to be screened was that of C16-K(G or A)nK-C16 (compound type C, with R1=n-C15H31, R2=n-C16H33). […] The results of the Ki determination for trypsin, dengue 2 protease, and human furin are given in Table 1A; some general data for the inhibition by this type of compounds are given in Table 1B. For most compounds in Table 1 the Ki could be derived from competitive inhibition experiments. Judging from the Ki values with the relatively simple substrate Z-RR-MCA, the best inhibitors for dengue 2 protease contain alanine (A) rather than glycine (G).

Experiment [5] addresses human furin (Homo sapiens, UniProt P09958). Description: Human furin inhibition, hydrolysis of Ac-RVRR-MCA. Type of experiment: biochemical. Conditions: for activity at 5 µM: 5 μM inhibitor; for activity at 10 µM: 10 μM inhibitor; for activity at 15 µM: 15 μM inhibitor; for activity at 40 µM: 40 μM inhibitor. As to the method: as §1, with “The enzyme was dissolved in 1 mL MES buffer (10 mM), 1 mM CaCl2, pH 7.0 at 36.5° C. Substrate” for “Substrate”
However, for furin we used a correction of Ki app, where [S]˜Km (eq. 2).
as §2

In experiment [6] the target is thrombin (Homo sapiens, UniProt P00734). The experiment can be described thus: Thrombin inhibition, fluorimetric enzyme assay. Type of experiment: biochemical. The note with it: 36.5° C., read-out: Residual Activity (%) Thrombin; for remaining activity at 15 µM: 15 μM inhibitor. As to the method: as §1, with “The enzyme was dissolved in 1 mL MES buffer (10 mM), 1 mM CaCl2, pH 7.0 at 36.5° C. Substrate” for “Substrate”, “Kiapp=Ki. […]” for “Kiapp=Ki.”

In experiment [7] the test system is DENV2 protease replicon. The experiment can be described thus: DENV2 protease replicon assay. Format: cell-based. The note with it: lowest concentration with observed activity in replicon assay. Background: A replicon is a self-replicating genome or part of one, used to study replication in cells.
Experiment [8] concerns the target T3, DENV2 protease (Dengue virus type 2, UniProt P14340).
T3 construct: The active site of the dengue protease is in the N-terminal part of NS3
Description: DENV2 protease biochemical assay. Conditions: 50 μM inhibitor.

[9] abbreviates: 36.5° C., read-out: Residual Activity (%) Trypsin.

The structures appear in SMILES notation. Residues, ends and D or L forms follow the SMILES beside them.

T1 sequence (P14340 1476-1653): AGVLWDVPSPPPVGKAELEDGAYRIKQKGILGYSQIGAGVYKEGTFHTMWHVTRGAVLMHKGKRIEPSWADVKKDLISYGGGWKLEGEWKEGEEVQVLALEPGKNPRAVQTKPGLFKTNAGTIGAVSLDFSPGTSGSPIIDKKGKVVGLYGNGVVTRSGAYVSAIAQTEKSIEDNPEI
Chain of human furin (P09958 108-794): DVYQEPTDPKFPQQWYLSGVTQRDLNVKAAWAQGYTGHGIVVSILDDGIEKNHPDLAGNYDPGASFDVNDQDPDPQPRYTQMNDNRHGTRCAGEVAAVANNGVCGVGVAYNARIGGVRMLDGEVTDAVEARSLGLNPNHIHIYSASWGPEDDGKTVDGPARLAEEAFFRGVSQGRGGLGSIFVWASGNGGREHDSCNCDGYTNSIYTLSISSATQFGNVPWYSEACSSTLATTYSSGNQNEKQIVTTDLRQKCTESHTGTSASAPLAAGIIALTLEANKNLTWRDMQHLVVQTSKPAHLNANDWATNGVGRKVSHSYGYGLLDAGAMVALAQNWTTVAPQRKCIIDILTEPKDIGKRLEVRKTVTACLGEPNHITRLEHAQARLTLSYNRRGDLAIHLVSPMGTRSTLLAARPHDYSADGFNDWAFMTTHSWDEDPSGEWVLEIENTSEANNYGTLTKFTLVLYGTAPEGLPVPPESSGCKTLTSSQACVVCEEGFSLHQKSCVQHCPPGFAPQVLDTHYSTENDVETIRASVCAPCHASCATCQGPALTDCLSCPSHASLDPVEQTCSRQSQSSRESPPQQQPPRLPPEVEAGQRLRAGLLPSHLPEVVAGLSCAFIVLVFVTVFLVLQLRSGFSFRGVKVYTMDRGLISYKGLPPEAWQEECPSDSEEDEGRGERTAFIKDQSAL
T3 sequence (P14340 1476-1653): as the sequence (P14340 1476-1653) above
T3 sequence (P14340 1398-1437): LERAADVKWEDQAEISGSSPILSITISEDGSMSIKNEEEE

The term Ki denotes a measure of affinity in units of concentration, obtained from inhibition or displacement. Turning to `CCCCCCCCCCCCNC(=O)[C@H](CCCCN)NC(=O)[C@H](C)NC(=O)[C@H](C)NC(=O)[C@H](CCCCN)NC(=O)CCCCCCCCCCC` [C12KA2KC12, n-C11H23C(O)-Lys-(Ala)2-Lys-(n-C12H25).2TFA] (HELM PEPTIDE1{[CCCCCCCCCCCC(=O)[*:2]].K.A.A.K.[CCCCCCCCCCCCN[*:1]]}$$$$V2.0), in experiment [1], affinity was put at a Ki of 11.6 µM. For the same compound, in experiment [2] (20 μM of inhibitor), the “% recovery in presence of Triton” value is listed as 95% and the “Activity with 0.05% Triton” value was found to be 216. In experiment [3] (20 μM of inhibitor), the Activity with inhibitors turned out to be 5.
In experiment [1], `CCCCCCCCCCCCNC(=O)[C@H](CCCCN)NC(=O)[C@H](CCCCN)NC(=O)CCCCCCCCCCC` [C12KKC12, n-C11H23C(O)-Lys-Lys-(n-C12H25).2TFA] yielded a Ki of 132 µM. Further, in experiment [2] (30 μM of inhibitor), the “% recovery in presence of Triton” value was 82% and the “Activity with 0.05% Triton” value was 180. Also, in experiment [3] (30 μM of inhibitor), the Activity with inhibitors stood at 0.
By inhibition is commonly meant the relative decrease from the control value, in per cent. For the compound `CCCCCCCCCCCCCCCCNC(=O)[C@H](CCCCN)NC(=O)[C@H](C)NC(=O)[C@H](C)NC(=O)[C@H](CCCCN)NC(=O)CCCCCCCCCCCCCCC` [C16-KAAK-C16] (HELM PEPTIDE1{[CCCCCCCCCCCCCCCC(=O)[*:2]].K.A.A.K.[CCCCCCCCCCCCCCCCN[*:1]]}$$$$V2.0), the remaining activity at 15 µM in experiment [4] (setting [9]) turned out to be 64%; in experiment [6] it was 80%. The remaining activity at 40 µM in experiment [4] (40 μM inhibitor, 36.5° C., read-out: Residual Activity (%) Trypsin) worked out at 20%; in experiment [6] (40 μM inhibitor), 55%. The remaining activity at 80 µM is 7% in experiment [4] (80 μM inhibitor, 36.5° C., read-out: Residual Activity (%) Trypsin) and 39% in experiment [6] (80 μM inhibitor). For the same compound, the Ki in experiment [1] is 0.63 µM; in experiment [5] (10 mM Mes.NaOH, pH 7.0, 2.35 μM Ac-RVRR-MCA, 37° C., read-out: Ki hFurin), 0.97 µM. Besides, the activity at 2.5 µM in experiment [1] (2.5 μM inhibitor, 36.5° C.) is 89%; in experiment [5] (2.5 μM inhibitor, 36.5° C.), 94%. The activity at 5 µM was 79% in experiment [1] (36.5° C.) and 83% in experiment [5] (36.5° C.). Besides, the activity at 10 µM in experiment [1] (36.5° C.) was found to be 68%; in experiment [5] (36.5° C.), 77%. Also, the activity at 15 µM was found to be 45% in experiment [1] (36.5° C.) and 69% in experiment [5] (36.5° C.). In experiment [1], this compound returned an Activity with inhibitors of 0. Also, the activity at 40 µM in experiment [1] (36.5° C.) amounted to 10%; in experiment [5] (36.5° C.), 3%. Moreover, the “% recovery in presence of Triton” value in experiment [2] (25 μM of inhibitor) is 56%. Further, the “Activity with 0.05% Triton” value in experiment [2] (25 μM of inhibitor) stood at 100. Further, the “Replicon activity [μM] (1)” value in experiment [7] is 3.0 µM. Moreover, the inhibition at 50 µM in experiment [8] turned out to be 97.7%.
In the case of `CCCCCCCCCCCCCCCCNC(=O)[C@H](CCCCN)NC(=O)CNC(=O)[C@H](CCCCN)NC(=O)CCCCCCCCCCCCCCC` [C16-KGK-C16, C15H31CO-KGK-NH—C16H33], the Ki came out at 41.6 µM in experiment [4] and 1.56 µM in experiment [1]. The remaining activity at 15 µM in experiment [4] (setting [9]) was determined as 76%; in experiment [6] it was 75%. Besides, the remaining activity at 55 µM is 40% in experiment [4] (55 μM inhibitor, 36.5° C., read-out: Residual Activity (%) Trypsin) and 61% in experiment [6] (55 μM inhibitor). For the same compound, the remaining activity at 85 µM turned out to be 24% in experiment [4] (85 μM inhibitor, 36.5° C., read-out: Residual Activity (%) Trypsin) and 40% in experiment [6] (85 μM inhibitor). The activity at 5 µM in experiment [1] (36.5° C.) stood at 75%; in experiment [5] (36.5° C.) it was 53%. For the same compound, the activity at 10 µM was 54% in experiment [1] (36.5° C.) and 18% in experiment [5] (36.5° C.). Moreover, the activity at 15 µM in experiment [1] (36.5° C.) was 40%; in experiment [5] (36.5° C.), 7%. For the same compound, the activity at 20 µM in experiment [1] (20 μM inhibitor, 36.5° C.) worked out at 29%; in experiment [5] (20 μM inhibitor, 36.5° C.), 4%. Further, the Activity with inhibitors in experiment [1] is 50. The activity at 40 µM in experiment [1] (36.5° C.) came to 2%; in experiment [5] (36.5° C.) it was 0%. In addition, the “% recovery in presence of Triton” value in experiment [2] (25 μM of inhibitor) was determined as 48%. In addition, in experiment [2] (25 μM of inhibitor), the “Activity with 0.05% Triton” value was determined as 90. In addition, the “Replicon activity [μM] (1)” value in experiment [7] stood at 1.0 µM. Moreover, the inhibition at 50 µM in experiment [8] is 103%.
In the case of `CCCCCCCCCCCCCCCCNC(=O)[C@H](CCCNC(=N)N)NC(=O)[C@H](C)NC(=O)[C@H](C)NC(=O)[C@H](CCCNC(=N)N)NC(=O)CCCCCCCCCCCCCCC` [C16RA2RC16, n-C15H31C(O)-Arg-(Ala)2-Arg-(n-C16H33).2TFA] (HELM PEPTIDE1{[CCCCCCCCCCCCCCCC(=O)[*:2]].R.A.A.R.[CCCCCCCCCCCCCCCCN[*:1]]}$$$$V2.0), the Ki in experiment [1] was found to be 2.1 µM. Moreover, in experiment [2] (30 μM of inhibitor), the “% recovery in presence of Triton” value is on record as 61% and the “Activity with 0.05% Triton” value stood at 128. For the same compound, the Activity with inhibitors in experiment [3] (30 μM of inhibitor) came out at 0.
`CCCCCCCCCCCCCCCCNC(=O)[C@H](CCCNC(=N)N)NC(=O)[C@H](C)NC(=O)[C@H](C)NC(=O)[C@H](C)NC(=O)[C@H](C)NC(=O)[C@H](CCCNC(=N)N)NC(=O)CCCCCCCCCCCCCCC` [C16RA4RC16, n-C15H31C(O)-Arg-(la)4-Arg-(n-C16H33).2TFA] (HELM PEPTIDE1{[CCCCCCCCCCCCCCCC(=O)[*:2]].R.A.A.A.A.R.[CCCCCCCCCCCCCCCCN[*:1]]}$$$$V2.0) registered a Ki in experiment [1] of 1.4 µM. In experiment [2] (20 μM of inhibitor), the “% recovery in presence of Triton” value is listed as 68% and the “Activity with 0.05% Triton” value is given as 164. In experiment [3] (20 μM of inhibitor), this compound gave an Activity with inhibitors of 22.
Regarding `CCCCCCCCCCCCCCCCNC(=O)[C@H](CCCNC(=N)N)NC(=O)[C@H](CCCNC(=N)N)NC(=O)CCCCCCCCCCCCCCC` [C16RRC16, n-C15H31C(O)-Arg-Arg-(n-C16H33).2TFA], in experiment [1], the Ki was found to be 0.8 µM. In experiment [2] (20 μM of inhibitor), the “% recovery in presence of Triton” value came out at 74% and the “Activity with 0.05% Triton” value worked out at 148. For the same compound, the Activity with inhibitors in experiment [3] (20 μM of inhibitor) is 48.

Source of the values: patent publication US20220017572A1, “GEMINOID LIPOPEPTIDE COMPOUNDS AND THEIR USES” (Erasmus University Medical Center Rotterdam, priority 2016, published 2022).
